Laboratory results as given in US20240016874A1, “COMPOSITIONS AND METHODS FOR PREVENTING AND TREATING CORONAVIRUSES” (priority 2020, published 2024).
Read-outs that look alike come from different tables or passages of the source.

Assays:
[1] = test system: SARS-CoV-2 MLV-PP infecting Expi-293F-ACE2 cells
[2] = test system: SARS-CoV-2 MLV-PP infecting Expi-293F-ACE2 cells; test: microbe, parasite or virus in culture; settings: Severe acute respiratory syndrome coronavirus 2, read-out: IC50 of thymoquinone, SARS-CoV-2-PP infection

COc1cnc(-n2cnc(C)n2)c2[nH]cc(C(=O)C(=O)N3CCN(C(=O)c4ccccc4)CC3)c12 [temsavir, reference compound]
inhibition of SARS-CoV-2 MLV-PP infecting Expi-293F-ACE2 cells [1]: does not inhibit

C[C@@H]1CCO[C@H]2Cn3cc(C(=O)NCc4ccc(F)cc4F)c(=O)c(O)c3C(=O)N12 [dolutegravir, reference compound]
inhibition of SARS-CoV-2 MLV-PP [1]: potent inhibitor

CC1=CC(=O)C(C(C)C)=CC1=O [thymoquinone]
IC50 [2]: 4.3 µM | block of the viral infection [1]: block the viral infection | cell toxicity at high concentrations [1]: can cause cell death | concentration that blocks SARS-CoV-2-MLV-PP infection without any cell toxicity [1]: 1 to 10 µM | increased effectiveness on adding black seed oil to thymoquinone [1]: about 16.0% | IC50 ([1]; read-out: IC50 of thymoquinone, SARS-CoV-2-PP infection): 3.6 µM
